molecular target: Dual specificity mitogen-activated protein kinase kinase 1 (Homo sapiens, UniProt Q02750); assay: Inhibition of MEK1
Sequence (Q02750 whole entry): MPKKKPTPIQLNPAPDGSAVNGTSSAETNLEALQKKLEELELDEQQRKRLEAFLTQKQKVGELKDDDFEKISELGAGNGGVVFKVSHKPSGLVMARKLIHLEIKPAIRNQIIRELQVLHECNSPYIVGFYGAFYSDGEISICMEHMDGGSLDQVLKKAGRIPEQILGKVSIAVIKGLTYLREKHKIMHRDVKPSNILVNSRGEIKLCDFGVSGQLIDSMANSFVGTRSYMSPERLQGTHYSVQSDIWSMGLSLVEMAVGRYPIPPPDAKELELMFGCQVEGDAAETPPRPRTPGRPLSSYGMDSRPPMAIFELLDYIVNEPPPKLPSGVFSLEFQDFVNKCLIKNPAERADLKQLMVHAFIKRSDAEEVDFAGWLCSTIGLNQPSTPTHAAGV

Structure (SMILES)	IC50
N#Cc1c(O)nsc1Nc1ccccc1C(F)(F)F	> 5 µM
CC(C)c1ccc(Sc2snc(O)c2C#N)cc1	> 5 µM
COc1cccc(Nc2snc(O)c2C#N)c1	> 5 µM
CC(Nc1snc(O)c1C#N)c1ccccc1 (configuration not stated)	> 5 µM
Cn1sc(Nc2ccccc2)c(C#N)c1=O	> 5 µM
N#Cc1c(O)nsc1Nc1cccc([N+](=O)[O-])c1	> 5 µM
COc1ccc(Nc2snc(O)c2C#N)cc1	> 5 µM
CC(C)Nc1snc(O)c1C#N	> 5 µM
N#Cc1c(O)nsc1NCCc1ccccc1	> 5 µM
COc1nsc(Nc2ccccc2)c1C#N	> 5 µM
COCCCNc1snc(O)c1C#N	> 5 µM
COC(=O)c1cccc(Nc2s[nH]c(=O)c2C#N)c1	> 5 µM
Cc1ccc(Nc2snc(O)c2C#N)cc1	> 5 µM
N#Cc1ccc(Nc2s[nH]c(=O)c2C#N)cc1	> 5 µM
N#Cc1c(O)nsc1NCCCN1CCOCC1	> 5 µM
Cc1ccccc1Nc1snc(O)c1C#N	> 5 µM
Cc1cccc(Nc2s[nH]c(=O)c2C#N)c1	> 5 µM

Next, values leading:

IC50	Structure (SMILES)
> 5 µM	N#Cc1c(O)nsc1NCCc1cccs1
> 5 µM	N#Cc1c(O)nsc1NCCc1ccc(O)cc1
> 5 µM	N#Cc1c(NCC2CCCCC2)s[nH]c1=O
> 5 µM	N#Cc1c(O)nsc1Oc1ccc(Oc2ccccc2)cc1
> 5 µM	N#Cc1c(O)nsc1Nc1ccc([N+](=O)[O-])cc1
> 2 µM	Cc1ccc(Nc2snc(O)c2/C(N)=N/O)cc1
> 5 µM	N#Cc1c(O)nsc1Nc1cccnc1
> 5 µM	COc1ccccc1Nc1snc(O)c1C#N
> 2 µM	Cc1ccc(Nc2snc(O)c2C(=N)NN2CCCCC2)cc1
> 5 µM	N#Cc1c(O)nsc1N1CCCCC1
> 5 µM	N#Cc1c(O)nsc1Nc1ccccc1[N+](=O)[O-]
0.41 µM	N#Cc1c(O)nsc1Nc1ccc(Cl)cc1
> 5 µM	CCCCNc1snc(O)c1C#N
7 µM	N#Cc1c(O)nsc1Nc1ccccc1
> 2 µM	COc1cc(Nc2snc(O)c2-c2nn[nH]n2)cc(OC)c1

Source: ChEMBL document CHEMBL1145349, “Discovery of 3-hydroxy-4-carboxyalkylamidino-5-arylamino-isothiazoles as potent MEK1 inhibitors” (Bioorg Med Chem Lett, 2006)
